Experimental data as given in US20240317780A1, “RADIOPHARMACEUTICAL SOMATOSTATIN RECEPTOR LIGANDS AND PRECURSORS THEREOF” (Technische Universität München, priority 2021, published 2024).
Where two headings read alike, the source gives them in different places.

What was measured:
[1] = Octanol-water distribution coefficient (logD pH 7.4) of the labeled tracer; format: physicochemical; conditions: n-octanol/PBS pH 7.4, room temperature
Procedure: Approximately 1 MBq of the labeled tracer was dissolved in 1 mL of a 1:1 mixture (by volumes) of phosphate buffered saline (PBS, pH 7.4) and n-octanol in an Eppendorf tube. After vigorous mixing of the suspension for 3 minutes at room temperature, the vial was centrifuged at 15000 g for 5 minutes (Biofuge 15, Heraus Sepatech, Osterode, Germany) and 100 μL aliquots of both layers were measured in a gamma counter. The experiment was repeated at least six times.

SST2 = molecular target: T1, SST2 (Homo sapiens, UniProt P30874); assay: Determination of IC50: competitive binding against [125I]TOC on SST2-transfected CHO cells; conditions: [125I]TOC reference radioligand, 60 min room temperature
T1 construct: expressed in transfected cells; host or cells: CHO (Chinese hamster ovary) cells
T1 sequence (P30874 whole entry, species assumed): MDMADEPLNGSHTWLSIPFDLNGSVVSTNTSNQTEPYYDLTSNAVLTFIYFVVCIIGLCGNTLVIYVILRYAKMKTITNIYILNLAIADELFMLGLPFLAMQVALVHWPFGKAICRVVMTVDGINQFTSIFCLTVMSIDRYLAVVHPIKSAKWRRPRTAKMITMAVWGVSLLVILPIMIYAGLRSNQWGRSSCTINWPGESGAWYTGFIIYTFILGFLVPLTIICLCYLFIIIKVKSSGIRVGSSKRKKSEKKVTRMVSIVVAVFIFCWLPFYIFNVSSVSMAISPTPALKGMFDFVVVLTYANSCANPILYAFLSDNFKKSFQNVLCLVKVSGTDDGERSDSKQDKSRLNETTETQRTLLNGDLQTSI

[2] = Biodistribution of 18F-labeled SST2 ligands in AR42J tumor-bearing mice; format: in vivo; conditions: female, CD1 nu/nu, mouse, iv, total radioactivity, 1 h post injection, tail vein
Procedure: All animal experiments were conducted in accordance with general animal welfare regulations in Germany and the institutional guidelines for the care and use of animals. To establish tumor xenografts, AR42J cells (5×10^6 cells/100 μL) were suspended in Dulbecco modified Eagle medium/Nutrition Mixture F-12 with Glutamax-1 (1:1) and inoculated subcutaneously onto the right shoulder of 8 weeks old, female CD1 nu/nu mice (Charles River, Sulzfeld, Germany). Mice were used for experiments when tumors had grown to a diameter of 5-9 mm (7-15 days after inoculation).
Approximately 0.5-2.0 MBq (0.05-0.25 nmol) of the ^18F-labeled SST2-ligands were injected into the tail vein of AR42J tumor-bearing female CD1 nu/nu mice and sacrificed after 1 h post injection (n=3-5). Selected organs were removed, weighted and measured in a γ-counter.
The Tables 4, 5, and 6 summarize the results of the in vivo mouse experiments. For all biodistribution studies, female CD1 nu/nu mice with AR42J tumor xenografts, were used and sacrificed 1 h post injection.

[3] = AR42J tumor, AR42J tumor, read-out: Tumor % ID/g ± SD
[4] = adrenal glands, read-out: Adrenal glands % ID/g ± SD
[5] = blood, read-out: Blood % ID/g ± SD
[6] = bone, read-out: Bone % ID/g ± SD
[7] = heart, read-out: Heart % ID/g ± SD
[8] = intestine, read-out: Intestine % ID/g ± SD
[9] = kidneys, read-out: Kidneys % ID/g ± SD
[10] = liver, read-out: Liver % ID/g ± SD
[11] = lung, read-out: Lung % ID/g ± SD
[12] = muscle, read-out: Muscle % ID/g ± SD
[13] = pancreas, read-out: Pancreas % ID/g ± SD
[14] = spleen, read-out: Spleen % ID/g ± SD
[15] = stomach, read-out: Stomach % ID/g ± SD

C[C@@H](O)[C@H](NC(=O)C1CSSCC(NC(=O)C(Cc2ccccc2)NC(=O)CNC(=O)CNC(=O)[C@@H](CC(=O)O)NC(=O)C(CC(=O)O)NC(=O)[C@@H](CNC(=O)c2ccc([Si](F)(C(C)(C)C)C(C)(C)C)cc2)NC(=O)CCC(C(=O)O)N2CCN(CC(=O)O)CCN(CC(=O)O)CCN(CC(=O)O)CC2)C(=O)N[C@@H](Cc2ccc(O)cc2)C(=O)NC(Cc2c[nH]c3ccccc23)C(=O)N[C@@H](CCCCN)C(=O)N[C@@H]([C@@H](C)O)C(=O)N1)C(=O)O (some centres unmarked) (natGa complex, metal not drawn) [[Ga]6]
LogDpH=7.4 [1]: −2.15 ± 0.09 | IC50 (SST2): 149 ± 20.3 nM

C[C@@H](O)[C@H](NC(=O)C1CSSCC(NC(=O)C(Cc2ccccc2)NC(=O)CNC(=O)CNC(=O)[C@@H](CC(=O)O)NC(=O)C(CC(=O)O)NC(=O)[C@@H](CNC(=O)c2ccc([Si](F)(C(C)(C)C)C(C)(C)C)cc2)NC(=O)CN2CCN(CC(=O)O)CCN(CC(=O)O)CCN(CC(=O)O)CC2)C(=O)N[C@@H](Cc2ccc(O)cc2)C(=O)NC(Cc2c[nH]c3ccccc23)C(=O)N[C@@H](CCCCN)C(=O)N[C@@H]([C@@H](C)O)C(=O)N1)C(=O)O (some centres unmarked) (natGa complex, metal not drawn) [[Ga]8]
LogDpH=7.4 [1]: −2.02 ± 0.04 | IC50 (SST2): 58.5 ± 10.8 nM

C[C@@H](O)[C@H](NC(=O)C1CSSCC(NC(=O)C(Cc2ccccc2)NC(=O)CNC(=O)CNC(=O)[C@@H](CC(=O)O)NC(=O)C(CC(=O)O)NC(=O)[C@@H](CNC(=O)CN2CCN(CC(=O)O)CCN(CC(=O)O)CCN(CC(=O)O)CC2)NC(=O)c2ccc([Si](F)(C(C)(C)C)C(C)(C)C)cc2)C(=O)N[C@@H](Cc2ccc(O)cc2)C(=O)NC(Cc2c[nH]c3ccccc23)C(=O)N[C@@H](CCCCN)C(=O)N[C@@H]([C@@H](C)O)C(=O)N1)C(=O)O (some centres unmarked) (natGa complex, metal not drawn) [[Ga]9]
LogDpH=7.4 [1]: −2.02 ± 0.04 | IC50 (SST2): 63.3 ± 1.75 nM

C[C@@H](O)[C@H](NC(=O)C1CSSCC(NC(=O)C(Cc2ccccc2)NC(=O)CNC(=O)CNC(=O)CNC(=O)C(CC(=O)O)NC(=O)[C@@H](CC(=O)O)NC(=O)C(CCCNC(N)=O)NC(=O)[C@@H](CNC(=O)C[N+](C)(C)Cc2ccc([Si](F)(C(C)(C)C)C(C)(C)C)cc2)NC(=O)CN2CCN(CC(=O)O)CCN(CC(=O)O)CCN(CC(=O)O)CC2)C(=O)N[C@@H](Cc2ccc(O)cc2)C(=O)NC(Cc2c[nH]c3ccccc23)C(=O)N[C@@H](CCCCN)C(=O)N[C@@H]([C@@H](C)O)C(=O)N1)C(=O)O (some centres unmarked) (natGa complex, metal not drawn) [[Ga]46]
tissue uptake at 1 h [2, 3]: 23.4 ± 1.07 %ID/g | tissue uptake at 1 h [2, 4]: 1.71 ± 0.38 %ID/g | tissue uptake at 1 h [2, 5]: 0.57 ± 0.24 %ID/g | tissue uptake at 1 h [2, 6]: 1.21 ± 0.24 %ID/g | tissue uptake at 1 h [2, 7]: 0.3 ± 0.04 %ID/g | tissue uptake at 1 h [2, 8]: 1.43 ± 0.35 %ID/g | tissue uptake at 1 h [2, 9]: 12.6 ± 1.58 %ID/g | tissue uptake at 1 h [2, 10]: 0.83 ± 0.14 %ID/g | tissue uptake at 1 h [2, 11]: 3.22 ± 0.53 %ID/g | tissue uptake at 1 h [2, 12]: 0.1 ± 0.02 %ID/g | tissue uptake at 1 h [2, 13]: 11.1 ± 2.61 %ID/g | tissue uptake at 1 h [2, 14]: 0.57 ± 0.14 %ID/g | tissue uptake at 1 h [2, 15]: 6.51 ± 1.64 %ID/g | IC50 (SST2): 4.79 ± 0.84 nM

C[C@@H](O)[C@H](NC(=O)C1CSSCC(NC(=O)C(Cc2ccccc2)NC(=O)CNC(=O)CNC(=O)CNC(=O)C(CC(=O)O)NC(=O)[C@@H](CC(=O)O)NC(=O)C(CNC(=O)CN2CCN(CC(=O)O)CCN(CC(=O)O)CCN(CC(=O)O)CC2)NC(=O)C[N+](C)(C)Cc2ccc([Si](F)(C(C)(C)C)C(C)(C)C)cc2)C(=O)N[C@@H](Cc2ccc(O)cc2)C(=O)NC(Cc2c[nH]c3ccccc23)C(=O)N[C@@H](CCCCN)C(=O)N[C@@H]([C@@H](C)O)C(=O)N1)C(=O)O (some centres unmarked) (natGa complex, metal not drawn) [[Ga]50]
tissue uptake at 1 h [2, 3]: 31.8 ± 2.49 %ID/g | tissue uptake at 1 h [2, 4]: 2.39 ± 0.53 %ID/g | tissue uptake at 1 h [2, 5]: 0.5 ± 0.21 %ID/g | tissue uptake at 1 h [2, 6]: 1.23 ± 0.41 %ID/g | tissue uptake at 1 h [2, 7]: 0.27 ± 0.03 %ID/g | tissue uptake at 1 h [2, 8]: 1.84 ± 0.45 %ID/g | tissue uptake at 1 h [2, 9]: 12.3 ± 3.4 %ID/g | tissue uptake at 1 h [2, 10]: 1.22 ± 0.18 %ID/g | tissue uptake at 1 h [2, 11]: 3.73 ± 0.57 %ID/g | tissue uptake at 1 h [2, 12]: 0.1 ± 0.03 %ID/g | tissue uptake at 1 h [2, 13]: 17.3 ± 2.87 %ID/g | tissue uptake at 1 h [2, 14]: 0.55 ± 0.06 %ID/g | tissue uptake at 1 h [2, 15]: 9.54 ± 1.83 %ID/g | IC50 (SST2): 3.01 ± 0.03 nM

CC(O)C(NC(=O)C1CSSCC(NC(=O)C(Cc2ccccc2)NC(=O)CNC(=O)CNC(=O)CNC(=O)[C@@H](CCCN)NC(=O)[C@@H](CCCN)NC(=O)C(CNC(=O)CN2CCN(CC(=O)O)CCN(CC(=O)O)CCN(CC(=O)O)CC2)NC(=O)C[N+](C)(C)Cc2ccc([Si](F)(C(C)(C)C)C(C)(C)C)cc2)C(=O)N[C@@H](Cc2ccc(O)cc2)C(=O)NC(Cc2c[nH]c3ccccc23)C(=O)N[C@@H](CCCCN)C(=O)N[C@@H]([C@@H](C)O)C(=O)N1)C(=O)O (some centres unmarked) (natGa complex, metal not drawn) [[Ga]55]
LogDpH=7.4 [1]: −1.69 ± 0.04 | IC50 (SST2): 4.1 ± 0.54 nM

CC(O)C(NC(=O)C1CSSCC(NC(=O)C(Cc2ccccc2)NC(=O)CNC(=O)CNC(=O)CNC(=O)C(CC(N)=O)NC(=O)[C@@H](CC(N)=O)NC(=O)C(CNC(=O)CN2CCN(CC(=O)O)CCN(CC(=O)O)CCN(CC(=O)O)CC2)NC(=O)C[N+](C)(C)Cc2ccc([Si](F)(C(C)(C)C)C(C)(C)C)cc2)C(=O)N[C@@H](Cc2ccc(O)cc2)C(=O)NC(Cc2c[nH]c3ccccc23)C(=O)N[C@@H](CCCCN)C(=O)N[C@@H]([C@@H](C)O)C(=O)N1)C(=O)O (some centres unmarked) (natGa complex, metal not drawn) [[Ga]56]
LogDpH=7.4 [1]: −1.51 ± 0.03 | IC50 (SST2): 4 ± 0.34 nM

C[C@@H](O)[C@H](NC(=O)C1CSSCC(NC(=O)C(Cc2ccccc2)NC(=O)CNC(=O)CNC(=O)CNC(=O)C(CC(=O)O)NC(=O)[C@@H](CC(=O)O)NC(=O)C(CCCCN)NC(=O)[C@@H](CNC(=O)CN2CCN(CC(=O)O)CCN(CC(=O)O)CCN(CC(=O)O)CC2)NC(=O)C[N+](C)(C)Cc2ccc([Si](F)(C(C)(C)C)C(C)(C)C)cc2)C(=O)N[C@@H](Cc2ccc(O)cc2)C(=O)NC(Cc2c[nH]c3ccccc23)C(=O)N[C@@H](CCCCN)C(=O)N[C@@H]([C@@H](C)O)C(=O)N1)C(=O)O (some centres unmarked) (natGa complex, metal not drawn) [[Ga]57]
LogDpH=7.4 [1]: −2.25 ± 0.14 | IC50 (SST2): 4.74 ± 0.22 nM

C[C@@H](O)[C@H](NC(=O)C1CSSCC(NC(=O)C(Cc2ccccc2)NC(=O)CNC(=O)CNC(=O)CNC(=O)C(CC(=O)O)NC(=O)[C@@H](CC(=O)O)NC(=O)C(CCCNC(N)=O)NC(=O)[C@@H](CNC(=O)CN2CCN(CC(=O)O)CCN(CC(=O)O)CCN(CC(=O)O)CC2)NC(=O)C[N+](C)(C)Cc2ccc([Si](F)(C(C)(C)C)C(C)(C)C)cc2)C(=O)N[C@@H](Cc2ccc(O)cc2)C(=O)NC(Cc2c[nH]c3ccccc23)C(=O)N[C@@H](CCCCN)C(=O)N[C@@H]([C@@H](C)O)C(=O)N1)C(=O)O (some centres unmarked) (natGa complex, metal not drawn) [[Ga]58]
LogDpH=7.4 [1]: −2.31 ± 0.04 | IC50 (SST2): 4.41 ± 0.81 nM

C[C@@H](O)[C@@H]1NC(=O)[C@H](CCCCN)NC(=O)C(Cc2ccc(NC(N)=O)cc2)NC(=O)[C@H](Cc2ccc(NC(=O)C3CC(=O)NC(=O)N3)cc2)NC(=O)[C@H](NC(=O)[C@H](Cc2ccc(Cl)cc2)NC(=O)CNC(=O)CNC(=O)CNC(=O)C(CC(=O)O)NC(=O)[C@@H](CC(N)=O)NC(=O)C(CNC(=O)CN2CCN(CC(=O)O)CCN(CC(=O)O)CCN(CC(=O)O)CC2)NC(=O)C[N+](C)(C)Cc2ccc([Si](F)(C(C)(C)C)C(C)(C)C)cc2)CSSCC(C(=O)NC(Cc2ccc(O)cc2)C(N)=O)NC1=O (some centres unmarked) (natGa complex, metal not drawn) [[Ga]59]
LogDpH=7.4 [1]: −2.14 ± 0.03 | IC50 (SST2): 23.7 ± 1.5 nM
